Results taken from US6770020B2 (priority 2001, dated 2004).
Entries after “also recorded” stand apart in the source; their conditions may differ.

Key:
[1] = system: human glioblastoma cells (TB 10); experiment: ICP-MS Gd release/retention after Gd-DTPA wash-out; settings: 10 mg/ml 72 hours
[2] = system: human glioblastoma cells (TB 10); experiment: Gd-DTPA toxicity by cell counting; format: cell-based
Procedure: Two effects that may affect the Gd-DTPA uptake kinetics were examined: compound toxicity and cell density. Three independent series of cell cultures were grown at different densities and exposed for up to 120 hours. Cell counting performed at the end of the incubation time either in control or in Gd-treated cultures gave the same cell number.
In addition, some of the cells exposed to Gd-DTPA for 120 hours were re-plated.

[3] = system: human glioblastoma cells (TB 10); experiment: Cell survival after thermal neutron irradiation of Gd-DTPA-exposed cultures; format: cell-based; settings: for cell death after neutron irradiation: FIG. 5
Procedure: 5) For neutron bombardment, two series of cell cultures (each one in duplicate) from different passages were plated in plastic “NUNC”-brand flasks (Nalge Nunc International, Rochester, N.Y.) (NUNCLON, 25 cm^2culture area) at a density of 1×10^4 cells/cm^2 and exposed to no Gd-DTPA, 1 mg/ml, 5 mg/ml, or 10 mg/ml GdDTPA, for 72 hours, beginning 24 hours after plating. At the end of the exposure period, the growth media were removed and the flasks filled with Puck's modified saline, in which the cells remained for two hours before neutron bombardment. The cells were then irradiated for one hour under a thermal neutron flux of 3×10^8 n/cm^2s (nominal power 5 kW), at the ENEA's (Ente per le Nuove Tecnologie, L'Energia e L'Ambiente, Rome, Italy) TAPIRO fast Reactor. The fast neutron flux at the center of the irradiation chamber (20 cm^3 cube) was negligible, while the γ average dose was 3.2 Gy/h.^(20) Two hours later, the cells were detached from the plates, and cell survival was measured by cell counting and by the colorimetric MTT assay. The standard deviation of cell counting results on the four culture series was within 10%.
To verify if the 140 μg/ml of Gd retained by glioblastoma cells in the two- to four-hour washout time was still available as an efficient tumoricidal agent for NCT, the cultures were irradiated for one hour with thermal neutrons.
The data of FIG. 5 were obtained by direct living cell count and very similar results were obtained by the use of an MTT assay. As presented in FIG. 5, the control cultures (no Gd) were also affected by neutron irradiation, causing 20% of the cells to die. […] The serum-free environment insures that the DNA-repair cellular mechanism is slowed down, resulting (in principle) in decreased survival of the cells in which the Gd neutron capture reaction induced DNA damage. The 20% cell killing observed in cells not exposed to Gd provides an evaluation of the extent of this phenomenon.

[4] = rats; cited from earlier work
[5] = higher concentrations and prolonged exposure; cited from earlier work
[6] = LD50 in rats; format: in vivo; settings: 70 kg human, assuming a similar LD50 in man
[7] = cited from earlier work

SMILES: O=C([O-])CN(CCN(CC(=O)[O-])CC(=O)O)CCN(CC(=O)[O-])CC(=O)O.[Gd+3] [Gd-DTPA, gadolinium diethylene triamine pentaacetic acid]
- immediate loss of Gd from the cell bodies after wash-out ([1]; FIG. 4): about 80%
- intracellular retained Gd concentration ([1]; then two to four hours in physiological solution): 140 µg/mL
- growth and morphology after re-plating ([2]; cells exposed 120 hours, re-plated, after one week): grew normally
- cytotoxic or cytostatic effect (cell counting vs. unexposed controls) ([2]; different concentrations of Gd-DTPA, 72 hours): not cytotoxic or cytostatic
- cytotoxic or cytostatic effect (cell counting vs. control) ([2]; exposed for up to 120 hours): did not show any cytotoxic or cytostatic effect; also recorded: no toxic effects; also recorded: no effect on cell survival
- cell death after Gd exposure followed by thermal neutrons ([3]; 140 μg/ml Gd retained after two hours in physiological solution, 1 hour thermal neutrons): 70%
- cell inactivation by Gd plus thermal neutrons vs. thermal neutrons alone ([3]; 70% vs. 20% killing): 3.5 times
- cell death after neutron irradiation ([3]; exposure 1 mg/ml Gd-DTPA 72 hours): not sufficient to induce consistent cell death
- cell death after neutron irradiation ([3]; exposure 10 and 5 mg/ml Gd-DTPA 72 hours): evident and reproducible cell death
- LD50 [4]: 20 mmol/kg
- intravascular hemolysis [5]: weak, reversible intravascular hemolysis
- amount injected for a 50% chance of killing [6]: more than 850 g
- dose eliminated renally ([7]; 6 hours post-injection in man, average): about 83%
- dose found in the urine ([7]; 5 days post-injection in man): approximately 91%
- dose dependence of pharmacokinetics ([7]; humans): independent of the dose
- half life in the blood ([7]; in vivo): around 30 minutes
